Experimental findings from PubChem BioAssay (NCI) are described below.

What all share (experiment): growth of human tumour cells (NCI), 48 h
Test [1] deals with NCI-H460 lung.
Test [2] has as its system SK-OV-3 ovarian.
Test [3] has as its system SNB-75 CNS.
The subject of test [4] is TK-10 renal.
Test [5] deals with ACHN renal.
The subject of test [6] is COLO 205 colon.
Test [7] relates to OVCAR-8 ovarian.
Test [8] relates to SF-539 CNS.
Test [9] relates to SN12C renal.
The subject of test [10] is MDA-MB-435.

The structures appear in SMILES notation. Values joined by “and” are separate entries in the source; they are usually repeats but may differ in a detail not shown here. Identical values can stand only once.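 Values below derive from 48-hour exposures of cells grown in 96-well plates, with endpoints linearly interpolated between the two concentrations bracketing the appropriate inhibition level. Abbreviation: GI50, concentration required for 50% inhibition of growth. TGI: concentration producing complete growth inhibition.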

With `CCCCCCOc1ccc(C(=N)N(CCCC)CCCC)c2ccccc12`, the GI50 in [1] was 1.56 µM; in test [2], 1.57 µM; in [3] it was 1.19 µM; in test [4], 1.57 µM. Besides, the TGI stood at 3.01 µM in test [1], 2.96 µM in test [2], 2.46 µM in test [3] and 3.14 µM in [4].

Regarding `CC(C)(C)CC(C)(C)c1ccc(OCCOCC[N+](C)(C)Cc2ccccc2)cc1`, the GI50 in test [5] was 6.95 µM; in [1], 1.58 µM; in test [8], 1.69 µM and 2.88 µM; in test [2] it was 1.46 µM; in test [3], 0.962 µM. Besides, the TGI in [5] was 32.9 µM and 26.7 µM; in test [6], 2.91 µM; in [1], 3.43 µM and 11.7 µM; in test [7] it was 12.8 µM; in test [8] it was 3.41 µM and 9.48 µM; in test [2], 2.94 µM and 25.7 µM. Also, the TGI in [9] was 12.7 µM; in test [3] it was 2.34 µM and 5.55 µM; in [4], 17.3 µM.

As to `O=C1CC2(CCNCC2)C(=O)N1N1CCOCC1`, the TGI in [5], in [6], in test [1], in test [7], in [8] and in test [2] was above 100 µM in each case. Besides, the TGI in [9], in test [3] and in test [4] was above 100 µM throughout.

`NS(=O)(=O)c1cc(S(N)(=O)=O)c(NC(=O)N(c2ccccc2)c2ccccc2)c(Cl)c1Cl`: the TGI is 76.5 µM in test [5]; 42.2 µM in [6]; 67.2 µM in test [10]; above 100 µM in test [1]; 34.2 µM in [7]; 65.3 µM in [2]. Also, the TGI in test [9] was 57.6 µM; in test [4], above 100 µM.

On to `CC12CC(c3ccccc3O1)C(C(=O)Nc1cccc(F)c1)C(=O)N2` (configuration not stated), for which the TGI in [5] is above 100 µM; in [6] it was above 100 µM; in test [10] it was above 100 µM; in test [1], above 100 µM; in [7], 80.6 µM; in [8] it was above 100 µM. Also, the TGI in [2] was above 100 µM.

As to `COC(=O)n1c(C[P+](c2ccccc2)(c2ccccc2)c2ccccc2)cc2ccccc21`, the TGI in test [5] worked out at 14.9 µM; in test [6] it was 2.92 µM; in test [1], 12.2 µM; in [7], 10.4 µM; in test [8] it was 14.7 µM; in [2] it was 3.59 µM. The TGI in [9] worked out at 11.7 µM; in test [4] it was 9.12 µM.

With `CC(=O)Nc1ccc(C(=O)N2N=C(C)/C(=C/c3ccc(O)cc3)C2=O)cc1`, the TGI in test [5], in test [6], in [1], in test [7], in test [8] and in test [9] was above 100 µM each time. For the same molecule, the TGI in [3] and in test [4] was above 100 µM each time.

For the molecule `Nc1c(N=Nc2ccc(-c3ccc(N=Nc4c(O)ccc5cc(S(=O)(=O)O)cc(S(=O)(=O)O)c45)cc3)cc2)c(S(=O)(=O)O)cc2cc(S(=O)(=O)O)c(N=Nc3ccccc3)c(O)c12`, the TGI in test [6], in [1], in test [7], in test [8], in [2] and in [9] was above 100 µM each time. For the same molecule, the TGI in [3] was found to be 90.7 µM.

Take `CC(C)(C)c1ccc(-c2nnc(-c3cc(C#N)cc(-c4nnc(-c5ccc(C(C)(C)C)cc5)o4)c3)o2)cc1`: the TGI in test [5], in [6], in test [10], in test [1], in test [7] and in test [2] was above 100 µM throughout. Besides, the TGI in test [9], in [3] and in test [4] was above 100 µM throughout.

`CCOC1=C2NC(Cc3ccc(F)cc3)=NC2C(=O)c2ccccc21` (configuration not stated): the TGI is above 100 µM in test [5]; 87.5 µM in [6]; 52.4 µM in test [1]; 61.9 µM in [7]; 36 µM in [8]; above 100 µM in test [2]. Further, the TGI in test [3] is 55.1 µM; in test [4] it was above 100 µM.

As to `O=C1CSC2(CC(/C=C/c3ccccc3Br)=NN2c2cccc(S(=O)(=O)O)c2)N1c1nc2ccccc2s1` (configuration not stated), the TGI in test [5], in test [6], in test [10], in test [1], in test [7] and in test [8] was above 100 µM throughout. The TGI in [9], in test [3] and in test [4] was above 100 µM in each case.

On to `c1ccc(OCCSCCCCCCCCCCSCCOc2ccccc2)cc1`, for which the TGI in test [5], in test [6], in [1], in test [7], in test [8] and in test [2] was above 100 µM each time. The TGI in test [9], in [3] and in test [4] was above 100 µM throughout.

Consider `O=[N+]([O-])/C=C/c1cn(CCCCCn2cc(/C=C/[N+](=O)[O-])c3ccccc32)c2ccccc12`, for which the TGI in [5] was 13.9 µM; in [6] it was above 46.1 µM; in test [1], 17.4 µM; in test [7], 16.5 µM; in test [8], 5.28 µM; in [2], above 93.5 µM. Also, the TGI in test [9] was above 21.5 µM; in test [4], 5.37 µM.

`C/C(=C\Cc1cc(O)ccc1O)CCc1c(C)cc(O)c(C=O)c1C`: the TGI in test [5] is 44.3 µM; in test [6] it was 33.4 µM; in test [1], 67.2 µM; in [7], 33.9 µM; in [8] it was 38.3 µM; in [2], above 100 µM. In addition, the TGI in test [9] was 92.4 µM; in test [3], 77.4 µM; in test [4] it was above 100 µM.

For the molecule `CCOC(=O)CCCn1cc(C(=O)OC)nn1`, the TGI in test [5], in test [6], in [10], in test [1], in test [7] and in test [8] was above 100 µM throughout. Moreover, the TGI in test [9], in test [3] and in [4] was above 100 µM throughout.

In the case of `O=S1(=O)OCCOS(=O)(=O)C1Cc1nc2ccccc2[nH]1`, the TGI in [5], in test [6], in test [10], in test [1], in test [7] and in [9] was above 100 µM in each case. The molecule further returned a TGI in [4] above 100 µM.

Consider `COc1ccc(/C=C2\CCC(CNc3ccc(Br)cc3)C2=O)cc1` (configuration not stated), for which the TGI in [5], in test [6], in test [10], in test [1], in test [7] and in test [2] was above 100 µM throughout. The TGI in test [9] and in test [4] was above 100 µM each time.

For `O=C1/C(=C\c2cccc(Oc3ccccc3)c2)SC(c2ccccc2)N1c1cccc([N+](=O)[O-])c1` (configuration not stated), the TGI in test [5] was above 100 µM; in test [6], above 100 µM; in [10], above 100 µM; in test [1], above 100 µM; in [7], above 100 µM; in [8], 63.3 µM. The TGI in test [2], in test [9] and in test [4] was above 100 µM in each case.

Take `Cc1cc2n([O-])cccc-2[n+](=O)c1`: the TGI in [5], in test [6], in test [1], in test [7], in [8] and in [2] was above 100 µM each time. For the same molecule, the TGI in test [9], in test [3] and in [4] was above 100 µM throughout.

Turning to `COC(=O)CC(NC(=O)OCc1ccccc1)C(C(=O)OCc1ccccc1)C1(C)OCCO1` (configuration not stated), the TGI in [5] is above 100 µM; in [6] it was 36.5 µM; in [1] it was above 100 µM; in test [7] it was above 100 µM; in test [8] it was above 100 µM; in test [9], above 100 µM. Besides, the TGI is 73.2 µM in test [3] and above 100 µM in [4].

For the molecule `CC1(C)COC(c2c(-c3ccccc3)noc2CS(=O)c2ccccc2)=N1` (configuration not stated), the TGI in test [5], in test [6], in test [1], in [7], in [8] and in [2] was above 100 µM throughout. For the same molecule, the TGI in test [9], in test [3] and in test [4] was above 100 µM each time.

Regarding `OC12CCCCCC1(N1CCOCC1)c1ccccc12` (configuration not stated), the TGI in test [5], in [6], in [1], in test [7], in [8] and in test [2] was above 100 µM each time. In addition, the TGI in test [9], in [3] and in [4] was above 100 µM throughout.

`COc1ccc(C2=C(OC(=O)N(C)C)c3cccn3-c3cc(Cl)ccc3S2)cc1`: the TGI in [6], in test [10], in test [7], in test [2], in test [9] and in test [3] was above 10 µM throughout. In [4], this molecule showed a TGI above 10 µM.

For `COc1cccc(CN(C(=O)/C=C\Sc2ccccc2)C(C)(C)C)c1`, the TGI in test [5], in test [6], in test [10], in test [7], in [8] and in [2] was above 100 µM each time. Besides, the TGI in test [9] and in test [4] was above 100 µM each time.

Consider `CC(c1ccccc1)N1CC(C)(c2ccccc2)N(O)C(c2ccccc2)C1C` (configuration not stated), for which the TGI was 45.4 µM in test [5]; 23.7 µM in [6]; 27 µM in test [1]; above 100 µM in test [7]; 26.5 µM in test [8]; 87.8 µM in [2]. The TGI in test [3] is 55.2 µM; in [4] it was above 100 µM.

For `O=c1c2c(nc3n1CCC3)sc1c(O)c(Br)ccc12`, the TGI was 35.8 µM in [5]; 24.4 µM in [6]; 34.4 µM in test [1]; 24.2 µM in [7]; 33 µM in test [8]; above 100 µM in test [2]. Moreover, the TGI in test [9] is 43.1 µM; in test [3], above 100 µM; in test [4], 60.5 µM.

Take `Cc1cc2occ(-c3ccc(Cl)cc3)c2c(=O)o1`: the TGI in [5], in [6], in test [1], in test [7], in test [8] and in test [2] was above 100 µM each time. The TGI in test [9], in test [3] and in test [4] was above 100 µM throughout.

On to `Cc1cc(=O)[nH]c(NNC(C#N)c2ccc([N+](=O)[O-])cc2)n1` (configuration not stated), for which the TGI in test [5], in test [6], in test [1], in [7], in [8] and in test [2] was above 100 µM throughout. The TGI in [9], in test [3] and in test [4] was above 100 µM in each case.

Take `Cc1cc([N+](=O)[O-])c(S(=O)(=O)c2ccccc2)c([N+](=O)[O-])c1`: the TGI in test [5] was 33.4 µM; in test [6], 24 µM; in [1] it was 28.2 µM; in [7], above 62.5 µM; in test [8] it was 32.6 µM; in [2], 74.7 µM. Moreover, the TGI in test [9] was 18.3 µM; in test [3], 47.3 µM; in test [4] it was 32.4 µM.

`CCN(CC)CCCCC1CCN(CC(=O)N2c3ccccc3NC(=O)CC2C)CC1` (configuration not stated): the TGI in test [5], in test [6], in test [1], in [7], in test [8] and in [2] was above 100 µM each time. The TGI in test [9], in test [3] and in test [4] was above 100 µM in each case.
